The assay concerns the target human MGL from HeLa cells (Homo sapiens (Human), UniProt Q99685). The experiment in a line: MGL in vitro activity assay ([glycerol-1,3-3H]-oleoyl glycerol cleavage, activated carbon filter). It counts as biochemical. As to conditions: 300 nM [Glycerol-1,3-3H]-oleoyl glycerol, endogenously expressed MGL from HeLa cells, one hour incubation; read-out: MGL IC50. The essentials:
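Endogenous MGL in HeLa cells or homogenates was incubated with compound and 300 nM [glycerol-1,3-3H]-oleoyl glycerol for one hour. Reactions were filtered through activated carbon, and tritiated glycerol in the flow-through was counted as a measure of activity.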
Sequence of human MGL from HeLa cells (Q99685 whole entry): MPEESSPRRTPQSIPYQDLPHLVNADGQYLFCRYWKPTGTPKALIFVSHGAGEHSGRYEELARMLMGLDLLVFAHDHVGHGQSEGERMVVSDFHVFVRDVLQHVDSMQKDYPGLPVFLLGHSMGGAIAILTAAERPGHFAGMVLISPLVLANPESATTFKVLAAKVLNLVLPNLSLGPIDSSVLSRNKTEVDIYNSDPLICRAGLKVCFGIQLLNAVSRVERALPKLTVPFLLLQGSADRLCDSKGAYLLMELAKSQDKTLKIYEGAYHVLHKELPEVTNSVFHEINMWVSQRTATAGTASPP
As usually defined, the IC50 is the concentration that gives 50% inhibition. Regarding `O=C1N[C@]2(CO1)C[C@H](C(=O)N1CC[C@]3(c4cccc(OC(F)(F)F)c4)C[C@@H]3C1)C2` (stereo in doubt) [Example 50, (2s,4*R)-2-((1*S,6*R)-6-(3-(Trifluoromethoxy)phenyl)-3-azabicyclo[4.1.0]heptane-3-carbonyl)-7-oxa-5-azaspiro[3.4]octan-6-one], the IC50 was 4.2 nM. As to `O=C1N[C@]2(CO1)C[C@H](C(=O)N1CC[C@@]3(c4cccc(OC(F)(F)F)c4)C[C@H]3C1)C2` (stereo in doubt) [Example 51, (2s,4*S)-2-((1*R,6*S)-6-(3-(Trifluoromethoxy)phenyl)-3-azabicyclo[4.1.0]heptane-3-carbonyl)-7-oxa-5-azaspiro[3.4]octan-6-one], the IC50 came out at 0.52 nM. For `CC(C)(C)c1cccc([C@H]2[C@@H]3CN(C(=O)[C@H]4C[C@]5(COC(=O)N5)C4)C[C@@]32C)c1` (stereo in doubt) [Example 93, (rac)-(2s,4*5)-2-((1*R,5*S,6*R)-6-(3-(tert-Butyl)phenyl)-1-methyl-3-azabicyclo[3.1.0]hexane-3-carbonyl)-7-oxa-5-azaspiro[3.4]octan-6-one], the IC50 was determined as 0.76 nM. Turning to `CC1(c2ccc([C@@]34C[C@@H]3CN(C(=O)[C@H]3C[C@]5(CCC(=O)N5)C3)C4)cc2)CC1` (stereo in doubt) [Example 95, (2r,4*S)-2-((1*R,5*5)-1-(4-(1-Methylcyclopropyl)phenyl)-3-azabicyclo[3.1.0]hexane-3-carbonyl)-5-azaspiro[3.4]octan-6-one], the IC50 is 7.5 nM. For the molecule `CC1(c2ccc([C@]34C[C@H]3CN(C(=O)[C@H]3C[C@]5(CCC(=O)N5)C3)C4)cc2)CC1` (stereo in doubt) [Example 96, (2r,4*R)-2-((1*S,5*R)-1-(4-(1-Methylcyclopropyl)phenyl)-3-azabicyclo[3.1.0]hexane-3-carbonyl)-5-azaspiro[3.4]octan-6-one], the IC50 worked out at 8.5 nM. Regarding `CC(C)(C)c1cccc([C@H]2[C@@H]3CN(C(=O)[C@H]4C[C@]5(COC(=O)N5)C4)C[C@@]32C)c1` (stereo in doubt) [Example 99, (2s,4*5)-2-((1*R,5*S,6*R)-6-(3-(tert-Butyl)phenyl)-1-methyl-3-azabicyclo[3.1.0]hexane-3-carbonyl)-7-oxa-5-azaspiro[3.4]octan-6-one], the IC50 was found to be 0.64 nM. Take `CC(C)(C)c1cccc([C@@H]2[C@H]3CN(C(=O)[C@H]4C[C@]5(COC(=O)N5)C4)C[C@]32C)c1` (stereo in doubt) [Example 100, (2s,4*R)-2-((1*S,5*R,6*5)-6-(3-(tert-Butyl)phenyl)-1-methyl-3-azabicyclo[3.1.0]hexane-3-carbonyl)-7-oxa-5-azaspiro[3.4]octan-6-one]: the IC50 came out at 8.3 nM.

Turning to `O=C1N[C@]2(CO1)C[C@H](C(=O)N1C[C@@H]3[C@H](C1)[C@H]3c1cccc(OC(F)(F)F)c1)C2` [Example 38, (2s,4S)-2-((1R,5S,6S)-6-(3-(Trifluoromethoxy)phenyl)-3-azabicyclo[3.1.0]hexane-3-carbonyl)-7-oxa-5-azaspiro[3.4]octan-6-one], the IC50 worked out at 21 nM. Then `O=C1N[C@]2(CO1)C[C@H](C(=O)N1CC[C@@]3(c4ccccc4)C[C@H]3C1)C2` [Example 40, (2s,4S)-2-((1R,6S)-6-Phenyl-3-azabicyclo[4.1.0]heptane-3-carbonyl)-7-oxa-5-azaspiro[3.4]octan-6-one], with 136 nM; and `O=C1N[C@]2(CO1)C[C@H](C(=O)N1CC[C@]3(c4ccccc4)C[C@@H]3C1)C2` [Example 41, (2s,4R)-2-((1S,6R)-6-Phenyl-3-azabicyclo[4.1.0]heptane-3-carbonyl)-7-oxa-5-azaspiro[3.4]octan-6-one], with 9.6 nM; and `CC(C)(C)c1cccc([C@H]2[C@@H]3CN(C(=O)[C@H]4C[C@]5(CCC(=O)N5)C4)C[C@@H]32)c1` [Example 79, (2r,4S)-2-((1R,5S,6S)-6-(3-(tert-Butyl)phenyl)-3-azabicyclo[3.1.0]hexane-3-carbonyl)-5-azaspiro[3.4]octan-6-one], with 7.2 nM. In the case of `O=C1N[C@]2(CO1)C[C@H](C(=O)N1C[C@@H]3[C@H](C1)[C@H]3c1ccc(C(F)(F)F)cc1)C2` [Example 80, (2s,4S)-2-((1R,5S,6S)-6-(4-(Trifluoromethyl)phenyl)-3-azabicyclo[3.1.0]hexane-3-carbonyl)-7-oxa-5-azaspiro[3.4]octan-6-one], the IC50 was found to be 33 nM. `O=C1CC[C@]2(C[C@H](C(=O)N3C[C@@H]4[C@H](C3)[C@H]4c3ccc(C(F)(F)F)cc3)C2)N1` [Example 81, (2r,4S)-2-((1R,5S,6S)-6-(4-(Trifluoromethyl)phenyl)-3-azabicyclo[3.1.0]hexane-3-carbonyl)-5-azaspiro[3.4]octan-6-one]: the IC50 is 206 nM. Then `CC(C)(C)c1ccc([C@H]2[C@@H]3CN(C(=O)[C@H]4C[C@]5(CCC(=O)N5)C4)C[C@@H]32)cc1` [Example 83, (2r,4S)-2-((1R,5S,6S)-6-(4-(tert-Butyl)phenyl)-3-azabicyclo[3.1.0]hexane-3-carbonyl)-5-azaspiro[3.4]octan-6-one], with 2.9 nM; and `CC(C)c1cccc([C@H]2[C@@H]3CN(C(=O)[C@H]4C[C@]5(COC(=O)N5)C4)C[C@@H]32)c1` [Example 84, (2s,4S)-2-((1R,5S,6S)-6-(3-Isopropylphenyl)-3-azabicyclo[3.1.0]hexane-3-carbonyl)-7-oxa-5-azaspiro[3.4]octan-6-one], with 5.5 nM.

Take `Cc1ccc([C@H]2[C@@H]3CN(C(=O)[C@H]4C[C@]5(COC(=O)N5)C4)C[C@@H]32)cc1C(F)(F)F` [Example 85, (2s,4S)-2-((1R,5S,6S)-6-(4-Methyl-3-(trifluoromethyl)phenyl)-3-azabicyclo[3.1.0]hexane-3-carbonyl)-7-oxa-5-azaspiro[3.4]octan-6-one]: the IC50 was 4.4 nM. As for `CCc1ccc([C@H]2[C@@H]3CN(C(=O)[C@H]4C[C@]5(COC(=O)N5)C4)C[C@@H]32)cc1` [Example 86, (2s,4S)-2-((1R,5S,6S)-6-(4-Ethylphenyl)-3-azabicyclo[3.1.0]hexane-3-carbonyl)-7-oxa-5-azaspiro[3.4]octan-6-one], the IC50 amounted to 25 nM.

`CCc1ccc([C@H]2[C@@H]3CN(C(=O)[C@H]4C[C@]5(CCC(=O)N5)C4)C[C@@H]32)cc1` [Example 87, (2r,4S)-2-((1R,5S,6S)-6-(4-Ethylphenyl)-3-azabicyclo[3.1.0]hexane-3-carbonyl)-5-azaspiro[3.4]octan-6-one]: the IC50 is 131 nM.

With `Cc1ccc([C@H]2[C@@H]3CN(C(=O)[C@H]4C[C@]5(COC(=O)N5)C4)C[C@@H]32)cc1C` [Example 88, (2s,4S)-2-((1R,5S,6S)-6-(3,4-Dimethylphenyl)-3-azabicyclo[3.1.0]hexane-3-carbonyl)-7-oxa-5-azaspiro[3.4]octan-6-one], the IC50 stood at 29 nM. For the molecule `Cc1ccc([C@H]2[C@@H]3CN(C(=O)[C@H]4C[C@]5(CCC(=O)N5)C4)C[C@@H]32)cc1C` [Example 89, (2r,4S)-2-((1R,5S,6S)-6-(3,4-Dimethylphenyl)-3-azabicyclo[3.1.0]hexane-3-carbonyl)-5-azaspiro[3.4]octan-6-one], the IC50 was found to be 178 nM. Take `CC(C)c1ccc([C@H]2[C@@H]3CN(C(=O)[C@H]4C[C@]5(COC(=O)N5)C4)C[C@@H]32)cc1` [Example 90, (2s,4S)-2-((1R,5S,6S)-6-(4-Isopropylphenyl)-3-azabicyclo[3.1.0]hexane-3-carbonyl)-7-oxa-5-azaspiro[3.4]octan-6-one]: the IC50 came out at 2.8 nM. As for `CC(C)c1ccc([C@H]2[C@@H]3CN(C(=O)[C@H]4C[C@]5(CCC(=O)N5)C4)C[C@@H]32)cc1` [Example 91, (2r,4S)-2-((1R,5S,6S)-6-(4-Isopropylphenyl)-3-azabicyclo[3.1.0]hexane-3-carbonyl)-5-azaspiro[3.4]octan-6-one], the IC50 turned out to be 20 nM. As for `Cc1ccccc1[C@H]1[C@@H]2CN(C(=O)[C@H]3C[C@]4(COC(=O)N4)C3)C[C@@H]21` [Example 98, (2s,4S)-2-((1R,5S,6S)-6-(o-Tolyl)-3-azabicyclo[3.1.0]hexane-3-carbonyl)-7-oxa-5-azaspiro[3.4]octan-6-one], the IC50 was determined as 150 nM. Consider `CC(C)Cc1cccc([C@H]2[C@@H]3CN(C(=O)[C@H]4C[C@]5(COC(=O)N5)C4)C[C@@H]32)c1` [Example 101, (2s,4S)-2-((1R,5S,6S)-6-(3-Isobutylphenyl)-3-azabicyclo[3.1.0]hexane-3-carbonyl)-7-oxa-5-azaspiro[3.4]octan-6-one], for which the IC50 is 1.5 nM.

In the case of `CC(C)(CO)c1cccc([C@H]2[C@@H]3CN(C(=O)[C@H]4C[C@]5(COC(=O)N5)C4)C[C@@H]32)c1` [Example 104, (2s,4S)-2-((1R,5S,6S)-6-(3-(1-Hydroxy-2-methylpropan-2-yl)phenyl)-3-azabicyclo[3.1.0]hexane-3-carbonyl)-7-oxa-5-azaspiro[3.4]octan-6-one], the IC50 is 19 nM. As for `CC(C)(C(=O)O)c1cccc([C@H]2[C@@H]3CN(C(=O)[C@H]4C[C@]5(COC(=O)N5)C4)C[C@@H]32)c1` [Example 105], the IC50 is 300 nM. Take `Cc1cc(C2CC2)ccc1[C@H]1[C@@H]2CN(C(=O)[C@H]3C[C@]4(COC(=O)N4)C3)C[C@@H]21` [Example 109, (2s,4S)-2-((1R,5S,6S)-6-(4-Cyclopropyl-2-methylphenyl)-3-azabicyclo[3.1.0]hexane-3-carbonyl)-7-oxa-5-azaspiro[3.4]octan-6-one]: the IC50 was 1.6 nM. The figure for `Cc1ccc([C@H]2[C@@H]3CN(C(=O)[C@H]4C[C@]5(COC(=O)N5)C4)C[C@@H]32)cc1Cl` [Example 110, (2s,4S)-2-((1R,5S,6S)-6-(3-Chloro-4-methylphenyl)-3-azabicyclo[3.1.0]hexane-3-carbonyl)-7-oxa-5-azaspiro[3.4]octan-6-one] is 17 nM.

These data come from patent US11708359B2, “Monoacylglycerol lipase modulators” (Janssen Pharmaceutica NV, priority 2020, dated 2023).
